How the values were obtained:
[1] = test system: HLA-A3+ melanoma cell line FM3; test: 51Cr-release cytotoxicity of clone 9 against FM3 melanoma cells; type: cell-based; conditions: unlabeled T2-A3 cells pulsed with 10 μM peptide; inhibitor to target ratio 20:1; Fig. 4b, c
T2-A3 cells = test: 51Cr-release cytotoxicity of T cell clone 9 against peptide-pulsed T2-A3 cells; type: cell-based; conditions: peptide 10 μM; E:T ratios 9:1, 3:1, 1:1, 0,3:1; duplicates
HLA-A3 = test: Assembly assay for peptide binding to MHC class I molecules; conditions: T2-A3 cells

| Sequence | cold target inhibition of FM3 killing by clone 9 [1] | lysis of peptide-pulsed T2-A3 cells by clone 9 (T2-A3 cells) | binding to HLA-A3 (in words) (HLA-A3) |
| --- | --- | --- | --- |
| RLGLQVRKNK [Rho1L2] | completely abrogated the killing of FM3 melanoma cells | effectively lysed | bound with intermediate affinity |
| ILRGSVAHK [Influenza NP265–273, reference compound] | – | – | high affinity |
| RAGLQVRKNK [Rho1] | – | effectively lysed | only bound very weakly to HLA-A3 |
